Data taken from ChEMBL document CHEMBL1201862, “PubChem BioAssay data set” (2004).
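48-hour exposure; five concentrations; linearly interpolated endpoints. GI50 = concentration required for 50% inhibition of growth.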 Activity calls are given as the source filed them. Cut-off read from the data, not from the text of the source: active = GI50 up to about 1.1 µM and inactive = higher.

Assays:
Assay in all cases: NCI anticancer screen, dose series, 48 h
SW-620 = system: SW-620
HCC 2998 = system: HCC 2998
SK-OV-3 = system: SK-OV-3
Malme-3M = system: Malme-3M
SK-MEL-28 = system: SK-MEL-28
OVCAR-4 = system: OVCAR-4
SNB-19 = system: SNB-19
NCI-H460 = system: NCI-H460
HCT-116 = system: HCT-116
SF-268 = system: SF-268
DLD-1 = system: DLD-1
MOLT-4 = system: MOLT-4
CCRF-CEM = system: CCRF-CEM
U-251 = system: U-251
NCI-H23 = system: NCI-H23
A498 = system: A498
IGROV-1 = system: IGROV-1
OVCAR-5 = system: OVCAR-5
MDA-N = system: MDA-N
MDA-MB-231 = system: MDA-MB-231

SMILES | GI50 (SW-620) | GI50 (HCC 2998) | GI50 (SK-OV-3) | GI50 (Malme-3M) | GI50 (SK-MEL-28) | GI50 (OVCAR-4) | GI50 (SNB-19) | GI50 (NCI-H460) | GI50 (HCT-116) | GI50 (SF-268) | GI50 (DLD-1) | GI50 (MOLT-4) | GI50 (CCRF-CEM) | GI50 (U-251) | GI50 (NCI-H23) | GI50 (A498) | GI50 (IGROV-1) | GI50 (OVCAR-5) | GI50 (MDA-N) | GI50 (MDA-MB-231)
CC(C)CCC[C@@H](C)C1CCC2[C@@H]3CC=C4C[C@@H](OC(=O)CCC(=O)NCC[N+](C)(C)CCCS(=O)(=O)[O-])CC[C@]4(C)C3CC[C@@]21C (some centres undefined) | 17.7 µM (inactive) | 20.6 µM (inactive) | > 100 µM (inactive) | 22.5 µM (inactive) | 17.8 µM (inactive) | 17.9 µM (inactive) | 24.3 µM (inactive) | 15.2 µM (inactive) | 23.1 µM (inactive) | 19.3 µM (inactive) | 21.7 µM (inactive) | 19.1 µM (inactive) | 23.5 µM (inactive) | 18.3 µM (inactive) | – | – | – | – | – | –
CC12CCC(=O)N1c1cc([N+](=O)[O-])ccc1N2 (centres undefined) | > 100 µM (inactive) | – | > 100 µM (inactive) | > 100 µM (inactive) | > 100 µM (inactive) | > 100 µM (inactive) | > 100 µM (inactive) | – | > 100 µM (inactive) | > 100 µM (inactive) | > 100 µM (inactive) | > 100 µM (inactive) | > 100 µM (inactive) | > 100 µM (inactive) | > 100 µM (inactive) | > 100 µM (inactive) | > 100 µM (inactive) | – | – | –
CC(C)(C)c1cc(OCc2nnc3sc(Cc4ccccc4)nn23)c(Cl)cc1OCc1nnc2sc(Cc3ccccc3)nn12 | 26.7 µM (inactive) | 4.4 µM (inactive) | 34 µM (inactive) | 19.5 µM (inactive) | 24.2 µM (inactive) | 24.8 µM (inactive) | 33.5 µM (inactive) | 17.7 µM (inactive) | 24.3 µM (inactive) | 44.2 µM (inactive) | – | 17.3 µM (inactive) | 3.27 µM (inactive) | 13.9 µM (inactive) | 31.9 µM (inactive) | 30.5 µM (inactive) | 22 µM (inactive) | 29 µM (inactive) | 24.5 µM (inactive) | 19.3 µM (inactive)
COC(=O)C1=C(C(=O)OC)C2(C)Nc3ccccc3C2=C(c2ccccc2)C1 (centres undefined) | 26.5 µM (inactive) | 26.2 µM (inactive) | – | 18.4 µM (inactive) | 19.8 µM (inactive) | 17.9 µM (inactive) | 24 µM (inactive) | 19.4 µM (inactive) | 19 µM (inactive) | 19.1 µM (inactive) | 30.4 µM (inactive) | 11.9 µM (inactive) | 19.4 µM (inactive) | 19.8 µM (inactive) | 19 µM (inactive) | – | 22.1 µM (inactive) | 24.5 µM (inactive) | – | –
CCc1nnc(S)n1/N=C/c1ccc(-c2ccc([N+](=O)[O-])cc2)o1 | > 100 µM (inactive) | > 100 µM (inactive) | > 100 µM (inactive) | > 100 µM (inactive) | > 100 µM (inactive) | > 100 µM (inactive) | > 100 µM (inactive) | > 100 µM (inactive) | > 100 µM (inactive) | > 100 µM (inactive) | > 100 µM (inactive) | > 100 µM (inactive) | – | > 100 µM (inactive) | > 100 µM (inactive) | – | > 100 µM (inactive) | > 100 µM (inactive) | – | –
O=C(O)C1CC(c2ccccc2)=NN1c1ccccc1 (centres undefined) | 92.3 µM (inactive) | 24.1 µM (inactive) | > 100 µM (inactive) | 32.5 µM (inactive) | > 100 µM (inactive) | 67.6 µM (inactive) | > 100 µM (inactive) | 54.7 µM (inactive) | 66.7 µM (inactive) | 81.1 µM (inactive) | – | 31.7 µM (inactive) | 48.4 µM (inactive) | 62.1 µM (inactive) | 52.6 µM (inactive) | 51.4 µM (inactive) | > 100 µM (inactive) | > 100 µM (inactive) | 99.5 µM (inactive) | > 100 µM (inactive)
COc1cc(C2c3cc4c(cc3OC(N3CCNCC3)C2C)OCO4)cc(OC)c1OC (centres undefined) | 0.445 µM (active) | 2.26 µM (inactive) | 0.476 µM (active) | 0.294 µM (active) | 2.85 µM (inactive) | 1.66 µM (inactive) | 0.912 µM (active) | 0.94 µM (active) | 0.56 µM (active) | 0.836 µM (active) | – | 1.16 µM (inactive) | 0.538 µM (active) | 0.675 µM (active) | 1.09 µM (active) | 0.726 µM (active) | 1.17 µM (inactive) | 5.13 µM (inactive) | 0.253 µM (active) | 0.403 µM (active)
COc1cc(NC=C2C(=O)OC(C)(C)OC2=O)c(OC)c(C)c1OC | > 100 µM (inactive) | > 100 µM (inactive) | > 100 µM (inactive) | > 65.2 µM (inactive) | > 100 µM (inactive) | > 74 µM (inactive) | > 100 µM (inactive) | > 100 µM (inactive) | > 100 µM (inactive) | > 100 µM (inactive) | – | > 100 µM (inactive) | > 100 µM (inactive) | > 100 µM (inactive) | > 100 µM (inactive) | > 100 µM (inactive) | > 100 µM (inactive) | > 100 µM (inactive) | > 100 µM (inactive) | > 100 µM (inactive)
CCC1=C(C)/C(=C/c2[nH]c(C(Br)Br)c(CC)c2C)N=C1C(Br)Br | 33.1 µM (inactive) | 12.8 µM (inactive) | 25.4 µM (inactive) | 35 µM (inactive) | 45.4 µM (inactive) | – | 33.3 µM (inactive) | 26.4 µM (inactive) | 23.8 µM (inactive) | 73.3 µM (inactive) | 25.6 µM (inactive) | 5.93 µM (inactive) | 13.6 µM (inactive) | 22.5 µM (inactive) | 32.4 µM (inactive) | – | 23.9 µM (inactive) | > 100 µM (inactive) | – | –
O=c1[nH]c2cc(C(F)(F)F)ccc2nc1CBr | 9.59 µM (inactive) | 17.8 µM (inactive) | 18.5 µM (inactive) | 14 µM (inactive) | 15.1 µM (inactive) | 15.7 µM (inactive) | 15.5 µM (inactive) | 13.9 µM (inactive) | 13.5 µM (inactive) | 21.3 µM (inactive) | – | 1.56 µM (inactive) | 1.04 µM (active) | 9.48 µM (inactive) | 15.4 µM (inactive) | 18.4 µM (inactive) | 10.6 µM (inactive) | 14.1 µM (inactive) | 12 µM (inactive) | 13.5 µM (inactive)
CC(=O)OC1CC2Oc3ccc(C)cc3C(C)(O2)C1=O (centres undefined) | > 100 µM (inactive) | – | > 100 µM (inactive) | > 100 µM (inactive) | > 100 µM (inactive) | – | > 100 µM (inactive) | > 100 µM (inactive) | > 100 µM (inactive) | – | > 100 µM (inactive) | > 100 µM (inactive) | > 100 µM (inactive) | > 100 µM (inactive) | > 100 µM (inactive) | – | > 100 µM (inactive) | – | – | –
Cc1ccc(/C=C/C(=O)c2c([O-])on[n+]2-c2ccccc2)cc1 | 2.46 µM (inactive) | 2.01 µM (inactive) | 8.09 µM (inactive) | 5.42 µM (inactive) | 2.26 µM (inactive) | 3.1 µM (inactive) | 3.98 µM (inactive) | 2.44 µM (inactive) | 1.84 µM (inactive) | 4.35 µM (inactive) | – | 2.34 µM (inactive) | 1.36 µM (inactive) | 2.79 µM (inactive) | 4.61 µM (inactive) | 5.86 µM (inactive) | 2.73 µM (inactive) | 4.17 µM (inactive) | 2.92 µM (inactive) | 4.98 µM (inactive)
